Data published in ChEMBL document CHEMBL1201862, “PubChem BioAssay data set” (2004).
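How tested: cells in 96-well plates exposed to compound for 48 hours at five concentrations. The concentration for 50% growth inhibition is given as GI50.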 Active and inactive are the calls of the source. Rule as the data show it: active = GI50 up to about 1.1 µM and inactive = higher.

Assays:
Assay in all cases: NCI-60 cell line screen, 48 h
HCT-15 = system: HCT-15
TK-10 = system: TK-10
IGROV-1 = system: IGROV-1
NCI-H522 = system: NCI-H522
HCC 2998 = system: HCC 2998
CCRF-CEM = system: CCRF-CEM
SW-620 = system: SW-620
COLO 205 = system: COLO 205
MDA-N = system: MDA-N
SNB-75 = system: SNB-75
BT-549 = system: BT-549
OVCAR-8 = system: OVCAR-8
NCI-H460 = system: NCI-H460
RXF 393 = system: RXF 393
MDA-MB-435 = system: MDA-MB-435
LOX IMVI = system: LOX IMVI
NCI-H226 = system: NCI-H226
Malme-3M = system: Malme-3M
SK-MEL-5 = system: SK-MEL-5
HT-29 = system: HT-29
SF-268 = system: SF-268
SK-MEL-2 = system: SK-MEL-2
K562 = system: K562
SR = system: SR
SF-295 = system: SF-295
PC-3 = system: PC-3
UO-31 = system: UO-31
SK-MEL-28 = system: SK-MEL-28
UACC-62 = system: UACC-62
HOP-62 = system: HOP-62
OVCAR-3 = system: OVCAR-3
NCI-H23 = system: NCI-H23
M14 = system: M14
Hs-578T = system: Hs-578T
HL-60 = system: HL-60
DU-145 = system: DU-145
UACC-257 = system: UACC-257
ACHN = system: ACHN
HCT-116 = system: HCT-116
NCI/ADR-RES = system: NCI/ADR-RES
SF-539 = system: SF-539
A498 = system: A498
SNB-19 = system: SNB-19
HOP-92 = system: HOP-92
U-251 = system: U-251
OVCAR-5 = system: OVCAR-5
SN12C = system: SN12C
A549 = system: A549
MDA-MB-231 = system: MDA-MB-231
786-0 = system: 786-0
MCF7 = system: MCF7
SK-OV-3 = system: SK-OV-3
OVCAR-4 = system: OVCAR-4
MOLT-4 = system: MOLT-4
KM12 = system: KM12
RPMI-8226 = system: RPMI-8226
EKVX = system: EKVX
CAKI-1 = system: CAKI-1

With `COc1cc(OC)c2nc(C)c3c(c2c1)NCC3` the GI50 (HCT-15) was 12.1 µM, the GI50 (TK-10) was 7.91 µM (inactive) and the GI50 (IGROV-1) was 9.75 µM (inactive). For the same compound, the GI50 (NCI-H522) was 7.73 µM (inactive), the GI50 (HCC 2998) was 7.83 µM (inactive) and the GI50 (CCRF-CEM) was 5.26 µM (inactive). The GI50 (SW-620) was 4.42 µM (inactive), the GI50 (COLO 205) was 4.68 µM (inactive) and the GI50 (MDA-N) was 8.09 µM (inactive). For the same compound, the GI50 (SNB-75) was 12.4 µM (inactive), the GI50 (BT-549) was 14.4 µM (inactive) and the GI50 (OVCAR-8) was 4.51 µM (inactive). The GI50 (NCI-H460) was 3.33 µM (inactive), the GI50 (RXF 393) was 4.48 µM (inactive) and the GI50 (MDA-MB-435) was 10 µM (inactive). The GI50 (LOX IMVI) was 3.25 µM (inactive), the GI50 (NCI-H226) was 3.47 µM (inactive) and the GI50 (Malme-3M) was 10.4 µM (inactive). The GI50 (SK-MEL-5) was 10 µM (inactive), the GI50 (HT-29) was 4.05 µM (inactive) and the GI50 (SF-268) was 5.92 µM (inactive). The GI50 (SK-MEL-2) was 9.42 µM (inactive), the GI50 (K562) was 0.776 µM (active) and the GI50 (SR) was 2.89 µM (inactive). For the same compound, the GI50 (SF-295) was 11.2 µM (inactive), the GI50 (PC-3) was 6.03 µM (inactive) and the GI50 (UO-31) was 8.73 µM (inactive). The GI50 (SK-MEL-28) was 15.2 µM (inactive), the GI50 (UACC-62) was 9.16 µM (inactive) and the GI50 (HOP-62) was 7.74 µM (inactive). For the same compound, the GI50 (OVCAR-3) was 10.2 µM (inactive), the GI50 (NCI-H23) was 6.34 µM (inactive) and the GI50 (M14) was 11.6 µM (inactive). The GI50 (Hs-578T) was 2.56 µM (inactive), the GI50 (HL-60) was 15.7 µM (inactive) and the GI50 (DU-145) was 21.6 µM (inactive). The GI50 (UACC-257) was 3.91 µM (inactive), the GI50 (ACHN) was 4.88 µM (inactive) and the GI50 (HCT-116) was 3.47 µM (inactive). For the same compound, the GI50 (NCI/ADR-RES) was 18.4 µM (inactive), the GI50 (SF-539) was 4.32 µM (inactive) and the GI50 (A498) was 13.7 µM (inactive). For the same compound, the GI50 (SNB-19) was 12.6 µM (inactive), the GI50 (HOP-92) was 13.3 µM (inactive) and the GI50 (U-251) was 9.35 µM (inactive). For the same compound, the GI50 (OVCAR-5) was 6.28 µM (inactive), the GI50 (SN12C) was 4.48 µM (inactive) and the GI50 (A549) was 11.8 µM (inactive). For the same compound, the GI50 (MDA-MB-231) was 7.76 µM (inactive), the GI50 (786-0) was 4.42 µM (inactive) and the GI50 (MCF7) was 3.94 µM (inactive). The GI50 (SK-OV-3) was 14.3 µM (inactive) and the GI50 (OVCAR-4) was 3.63 µM (inactive).
For `NC(Cc1ccccc1)c1nccs1` (stereo not drawn), the GI50 (HCT-15) was over 100 µM, the GI50 (TK-10) was > 100 µM (inactive) and the GI50 (MOLT-4) was > 100 µM (inactive). The GI50 (IGROV-1) was > 100 µM (inactive), the GI50 (NCI-H522) was > 100 µM (inactive) and the GI50 (HCC 2998) was > 100 µM (inactive). The GI50 (CCRF-CEM) was > 100 µM (inactive), the GI50 (KM12) was > 100 µM (inactive) and the GI50 (SW-620) was > 100 µM (inactive). The GI50 (COLO 205) was > 100 µM (inactive), the GI50 (MDA-N) was > 100 µM (inactive) and the GI50 (SNB-75) was > 100 µM (inactive). The GI50 (BT-549) was > 100 µM (inactive), the GI50 (OVCAR-8) was > 100 µM (inactive) and the GI50 (MDA-MB-435) was > 100 µM (inactive). For the same compound, the GI50 (LOX IMVI) was > 100 µM (inactive), the GI50 (NCI-H226) was > 100 µM (inactive) and the GI50 (Malme-3M) was > 100 µM (inactive). The GI50 (SK-MEL-5) was > 100 µM (inactive), the GI50 (RPMI-8226) was > 100 µM (inactive) and the GI50 (HT-29) was > 100 µM (inactive). For the same compound, the GI50 (SF-268) was > 100 µM (inactive), the GI50 (SK-MEL-2) was > 100 µM (inactive) and the GI50 (K562) was > 100 µM (inactive). For the same compound, the GI50 (SR) was > 100 µM (inactive), the GI50 (SF-295) was > 100 µM (inactive) and the GI50 (PC-3) was > 100 µM (inactive). For the same compound, the GI50 (UO-31) was > 100 µM (inactive), the GI50 (SK-MEL-28) was > 100 µM (inactive) and the GI50 (UACC-62) was > 100 µM (inactive). For the same compound, the GI50 (HOP-62) was > 100 µM (inactive), the GI50 (OVCAR-3) was > 100 µM (inactive) and the GI50 (NCI-H23) was > 100 µM (inactive). For the same compound, the GI50 (M14) was > 100 µM (inactive), the GI50 (Hs-578T) was > 100 µM (inactive) and the GI50 (DU-145) was > 100 µM (inactive). For the same compound, the GI50 (UACC-257) was > 100 µM (inactive), the GI50 (ACHN) was > 100 µM (inactive) and the GI50 (HCT-116) was > 100 µM (inactive). The GI50 (NCI/ADR-RES) was > 100 µM (inactive), the GI50 (SF-539) was > 100 µM (inactive) and the GI50 (A498) was > 100 µM (inactive). For the same compound, the GI50 (SNB-19) was > 100 µM (inactive), the GI50 (HOP-92) was > 100 µM (inactive) and the GI50 (U-251) was > 100 µM (inactive). For the same compound, the GI50 (OVCAR-5) was > 100 µM (inactive), the GI50 (SN12C) was > 100 µM (inactive) and the GI50 (A549) was > 100 µM (inactive). The GI50 (EKVX) was > 100 µM (inactive), the GI50 (MDA-MB-231) was > 100 µM (inactive) and the GI50 (786-0) was > 100 µM (inactive). The GI50 (CAKI-1) was > 100 µM (inactive), the GI50 (MCF7) was > 100 µM (inactive) and the GI50 (SK-OV-3) was > 100 µM (inactive). For the same compound, the GI50 (OVCAR-4) was > 100 µM (inactive).
